Assay results: patent US20260200850A1, “CRYSTALLINE FORMS OF A PIPERIDINE INHIBITOR OF SLC6A19 FUNCTION” (Jnana Therapeutics Inc., priority 2022, published 2026)
Values after ≈ are worked out from the molar mass of the structure shown.

Experiment: Solubility measurements of polymorphic Form I and II in biorelevant fluids
Format: physicochemical
Conditions: for solubility at 1.5 h / solubility at 3 h / solubility at 24 h: thermodynamic from solid
Excerpt: Example 3: Solubility Measurements of Form I and Form II

NC(=O)N1CCC[C@@H](N(C(=O)NCc2ccc(OC(F)(F)F)cc2F)C2CC2)C1 [Form I, (R)-3-(1-cyclopropyl-3-(2-fluoro-4-(trifluoromethoxy)benzyl)ureido) piperidine-1-carboxamide]
solubility at 1.5 h (5% HPBCD/2% TPGS, 25 °C, aqueous with cosolvent or surfactant or cyclodextrin, 1.5 h): 4960 µg/mL (≈ 11900 µM)
solubility at 3 h (5% HPBCD/2% TPGS, 25 °C, aqueous with cosolvent or surfactant or cyclodextrin, 3 h): 5110 µg/mL (≈ 12200 µM)
solubility at 24 h (5% HPBCD/2% TPGS, 25 °C, aqueous with cosolvent or surfactant or cyclodextrin, 24 h): 5280 µg/mL (≈ 12600 µM)
solubility at 1.5 h (FaSSIF, 37 °C, 1.5 h): 360 µg/mL (≈ 860 µM)
solubility at 3 h (FaSSIF, 37 °C, 3 h): 380 µg/mL (≈ 908 µM)
solubility at 24 h (FaSSIF, 37 °C, 24 h): 350 µg/mL (≈ 837 µM)
Solubility (FeSSIF, 37° C., 1.5 h): 910 µg/mL (≈ 2170 µM)
Solubility (FeSSIF, 37° C., 3 h): 900 µg/mL (≈ 2150 µM)
Solubility (FeSSIF, 37° C., 24 h): 980 µg/mL (≈ 2340 µM)
solubility at 1.5 h (SGF, 37 °C, simulated gastric fluid, 1.5 h): 400 µg/mL (≈ 956 µM)
solubility at 3 h (SGF, 37 °C, simulated gastric fluid, 3 h): 420 µg/mL (≈ 1000 µM)
solubility at 24 h (SGF, 37 °C, simulated gastric fluid, 24 h): 370 µg/mL (≈ 884 µM)
Solubility, comparison of the forms (relevant biofluids, in words): increased solubility relative to Form II

NC(=O)N1CCC[C@@H](N(C(=O)NCc2ccc(OC(F)(F)F)cc2F)C2CC2)C1 [Form II, (R)-3-(1-cyclopropyl-3-(2-fluoro-4-(trifluoromethoxy)benzyl)ureido) piperidine-1-carboxamide]
Solubility (5% HPBCD/2% TPGS, 25° C., 1.5 h): 4310 µg/mL (≈ 10300 µM)
Solubility (5% HPBCD/2% TPGS, 25° C., 3 h): 4270 µg/mL (≈ 10200 µM)
Solubility (5% HPBCD/2% TPGS, 25° C., 24 h): 4760 µg/mL (≈ 11400 µM)
Solubility (FaSSIF, 37° C., 1.5 h): 310 µg/mL (≈ 741 µM)
Solubility (FaSSIF, 37° C., 3 h): 270 µg/mL (≈ 645 µM)
Solubility (FaSSIF, 37° C., 24 h): 240 µg/mL (≈ 574 µM)
solubility at 1.5 h (FeSSIF, 37 °C, 1.5 h): 740 µg/mL (≈ 1770 µM)
solubility at 3 h (FeSSIF, 37 °C, 3 h): 720 µg/mL (≈ 1720 µM)
solubility at 24 h (FeSSIF, 37 °C, 24 h): 720 µg/mL (≈ 1720 µM)
Solubility (SGF, 37° C., 1.5 h): 260 µg/mL (≈ 621 µM)
Solubility (SGF, 37° C., 3 h): 270 µg/mL (≈ 645 µM)
Solubility (SGF, 37° C., 24 h): 300 µg/mL (≈ 717 µM)
